According to patent US20110039762A1, “TARGETED ANTIMICROBIAL MOIETIES” (C3 JIAN, INC., priority 2009, published 2011):
“Also recorded” adds a separate entry of the source.

How the values were obtained:
MRSA = assay: Kill or inhibit growth/proliferation; morphology, biofilm and growth disruption (Tables 5, 6); format: cell-based, Methicillin-resistant Staphylococcus aureus; parameters: key: A: Peptide aggregates; B: Less hyphal formation; Clumps; Diffuse clumps and small polyps; F: Diffuse growth; H: Thin; I: Growth inhibition; Microcolony formation; Rippled; Small polyps; Thick; W: Halo formation on top, microlonies on bottom; further: test concentration or dose not given here
[1] = tested on: microorganisms (e.g., bacteria, yeasts, fungi); assay: Targeting peptide binding to target microorganisms (Table 3); settings: preferably 1x PBS; for Target(s) (microorganisms bound by the targeting peptide): peptide binding in aqueous buffers varied by peptide solubility; for Target(s): microorganism(s) the targeting peptide binds
microorganisms = assay: Peptides having multiple activities (targeting/binding, antimicrobial, growth or phenotype altering)
Text: In certain embodiments, peptides described herein can have multiple activities. Thus for example, a peptide can have both binding/targeting activity and antimicrobial activity. Such peptides can be used, e.g., in a chimeric construct, for any or all of these properties. Thus, for example, a peptide designated “B” in Table 8 can be used as a targeting peptide. If it is also designated G or M it can also be used for antimicrobial activity.

S. pneumoniae = assay: Kill or inhibit growth/proliferation; morphology, biofilm and growth disruption (Tables 5, 6); format: cell-based, Streptococcus pneumoniae; parameters: key: A: Peptide aggregates; B: Less hyphal formation; Clumps; Diffuse clumps and small polyps; F: Diffuse growth; H: Thin; I: Growth inhibition; Microcolony formation; Rippled; Small polyps; Thick; W: Halo formation on top, microlonies on bottom; further: test concentration or dose not given here
[2] = peptide binding conducted in aqueous buffers varied by peptide solubility

Substance	Organism, effect (morphology, biofilm and growth disruption) (MRSA)	Target(s) (microorganisms bound by the targeting peptide) [1]	Activities (microorganisms)	Organism, effect (S. pneumoniae)	Target(s) [1, 2]	also measured
PF-692 (chain 1 GVAREDPLEPDPLAPIIDDSR; chain 2 GVAREDPLEPDPLAPIIDDSR; Peptide with targeting and/or antimicrobial activity)	MRSA (R)	Mycobacteria spp				
PF-661 (chain 1 PDEDIRRRAILPPAGPCRPMSPE; chain 2 PDEDIRRRAILPPAGPCRPMSPE; Peptide with targeting and/or antimicrobial activity)	MRSA (R)	Mycobacteria spp				
PF-630: peptide having multiple activities (chain 1 IPATPIIHS; chain 2 IPATPIIHS; Peptide with targeting and/or antimicrobial activity)			G B			Organism, effect (MRSA): MRSA (M)
PF-656 (chain 1 RGMFVPFHDVDCVQ; chain 2 RGMFVPFHDVDCVQ; Peptide with targeting and/or antimicrobial activity)	MRSA (R)	Mycobacteria spp				
PF-019 (NDTNK; Peptide with targeting and/or antimicrobial activity)						Organism, effect (MRSA): MRSA (M)
PF-680 (chain 1 ADPHPTTGI; chain 2 ADPHPTTGI; Peptide with targeting and/or antimicrobial activity)	MRSA (R)	Mycobacteria spp				
PF-573: peptide having multiple activities (chain 1 EKKLIVKLIDSIGKSHEEIVGAG; chain 2 EKKLIVKLIDSIGKSHEEIVGAG; Peptide with targeting and/or antimicrobial activity)			G B	S. pneumoniae (C)	S. epidermidis; also recorded: S. pneumoniae	
PF-144: peptide having multiple activities (RSGQPVGRPSRRAWLR; Peptide with targeting and/or antimicrobial activity)			G B	S. pneumoniae (H)		Target(s) ([1]; binding in aqueous buffers depending on peptide solubility): S. epidermidis and M. luteus and E. coli and C. albicans and MRSA and S. pneumoniae and E. faecalis and C. jeikeium
PF-414: peptide having multiple activities (LLNKKLE; Peptide with targeting and/or antimicrobial activity)			G B	S. pneumoniae (H)	E. coli; also recorded: C. albicans; also recorded: C. jeikeium	
PF-421: peptide having multiple activities (KHCFEITDKTDVV; Peptide with targeting and/or antimicrobial activity)			G B	S. pneumoniae (H)	C. jeikeium	
PF-445: peptide having multiple activities (chain 1 ASMTKRLKLAMSKV; chain 2 ASMTKRLKLAMSKV; Peptide with targeting and/or antimicrobial activity)			G B	S. pneumoniae (M)	M. luteus; also recorded: S. pneumoniae; also recorded: C. jeikeium	
PF-737: peptide having multiple activities (KSSGSSASASSTAGGSSSK; Peptide with targeting and/or antimicrobial activity)		S. epidermidis; also recorded: S. pneumoniae	G B			Organism, effect (morphology, biofilm and growth disruption) (S. pneumoniae): S. pneumoniae (D)
HKNKLNIPHIKS [PF-477]			G B	S. pneumoniae (H)	S. epidermidis; also recorded: M. luteus; also recorded: C. albicans; also recorded: S. pneumoniae; also recorded: C. jeikeium; also recorded: C. jejuni	
